Assay results taken from patent US20050197336A1 (Miikana Therapeutics Corporation, priority 2004, published 2005).

Assays:
[1] = system: Histone deacetylase (HDAC), HeLa cell nuclear extract; assay: In vitro fluorescent histone deacetylase assay (Biomol kit, HeLa cell nuclear extract); assay type: biochemical; conditions: compound at 100 μM; HeLa cell nuclear extract as HDAC source; substrate 50 μM; 10 min at room temperature
Procedure: Histone deacetylase (HDAC) activity assays were performed using the HDAC fluorescent activity assay/drug discovery kit (Biomol Research Laboratories, Plymouth Meeting, Pa.) essentially according to the manufacturer's instructions. The included HeLa cell nuclear extract, which contains a mosaic of HDAC enzymes and other nuclear factors, was used as the source of HDAC activity. The final substrate concentration in the assay mixture was 50 μM. The reaction was allowed to proceed for 10 min at room temperature before stopping the reaction. Test compounds were prepared as 20 mM stock solutions in DMSO (Molecular Biology grade, Sigma-Aldrich Co. St. Louis, Mo.) and stored at −70° C. Serial dilutions of test compounds were prepared in assay buffer immediately prior to testing. DMSO was determined in a separate trial to have no significant effect on the activity of this assay at concentrations up to 5%; the final DMSO concentration in the wells was no more than 2% and therefore DMSO effects were safely neglected. Assays were performed in white polystyrene 96-well half-area assay plates (Corning, Corning, N.Y.) and measured on a Wallace 1420 fluorescent plate reader (Wallac Oy, Turku, Finland) with an excitation wavelength of 355 nm, an emission wavelength of 460 nm, and a 1 sec signal averaging time.

MCF7 cells = assay: Whole cell cytotoxicity assay: Sulforhodamine B; assay type: cell-based, human; conditions: compound at 100 μM, MCF7 cell growth, 48 hours with drug, SRB staining; for inhibition at 100 µM: Homo sapiens
Procedure: The following procedure can be found on the Developmental Therapeutics Program NCI/NIH web site at http://dtp.nci.nih.gov/brancehes/btb/ivclsp.html.
1. Human tumor cell lines of HT29, A549 and MCF7 are grown in DMEM containing 10% fetal bovine serum and 2 mM L-glutamine. Cells are plated in a 96 well plate at a density of 5000 cells per well in 100 μL of growth medium and incubated at 37° C., 5% CO2, for 24 hours prior to the addition of experimental compounds.
2. Experimental drugs are solubilized in DMSO for a final concentration of 20 mM immediately prior to use. Drugs are further diluted in growth media for a total of nine drug concentrations and a growth control. At the 24 hour time point, one plate of cells is fixed in situ with TCA as a measurement of the cell population at time zero, or the time of drug addition.
3. The plates are further incubated with drug for an additional 48 hours.
4. The cells are fixed in situ by gently aspirating off the culture media and then adding 50 μL of ice cold 10% TCA per well and incubated at 4° C. for 60 minutes. The plates are washed with tap water five times and allowed to air dry for 5 minute.
5. 50 μL of a 0.4% (w/v) Sulforhodamine B solution in 1% (v/v) acetic acid is added per well and incubated for 30 minutes at room temperature.
6. Following staining, plates are washed five times with 1% acetic acid to remove any unbound dye and then allowed to air dry for 5 minutes.
7. Stain is solubilized with 100 μL of 10 mM Tris pH 10.5 per well and placed on an orbital rotator for 5 minutes.
8. Absorbance is read at 570 nm.

| Compound | % inhibition HDAC @ 100 μM [1] [%] | % inhibition MCF7 cells @ 100 μM (MCF7 cells) [%] | inhibition at 100 µM (MCF7 cells) [%] |
| --- | --- | --- | --- |
| 2-(4-{4-[(3-(pyrrolidin-1-ylmethyl)-2-furyl]phenylsulfonly}piperazin-1-yl)-1,3-thiazole-5-carboxylic acid hydroxyamide [Example 83] | 100 | 98 | – |
| COc1ccc(S(=O)(=O)N2CCN(c3ncc(C(=O)NO)s3)CC2)cc1OC [Example 2, 2-[4-(3,4-dimethoxy-benzenesulfonyl)-piperazin-1-yl]-thiazole-5-carboxylic acid hydroxyamide] | 99 | – | 98.3 |
| O=C(NO)c1cnc(N2CCN(S(=O)(=O)c3ccc(OC(F)(F)F)cc3)CC2)s1 [Example 3, 2-[4-(4-trifluoromethoxy-benzenesulfonyl)-piperazin-1-yl]-thiazole-5-carboxylic acid hydroxyamide] | 93 | – | 95.3 |
| Cc1ccc(S(=O)(=O)N2CCN(c3ncc(C(=O)NO)s3)CC2)cc1 [Example 4, 2-[4-(4-toluene-4-sulfonyl)-piperazin-1-yl]-thiazole-5-carboxylic acid hydroxyamide] | 100 | – | 95.4 |
| O=C(NO)c1cnc(N2CCN(S(=O)(=O)c3ccc(C(F)(F)F)cc3)CC2)s1 [Example 5, 2-[4-(4-trifluoromethyl-benzenesulfonyl)-piperazin-1-yl]-thiazole-5-carboxylic acid hydroxyamide] | – | – | 97.9 |
| O=C(NO)c1cnc(N2CCN(S(=O)(=O)c3ccc([N+](=O)[O-])cc3)CC2)s1 [Example 6, 2-[4-(4-nitro-benzenesulfonyl)-piperazin-1-yl]-thiazole-5-carboxylic acid hydroxyamide] | 97 | – | 95.1 |
| CC(=O)c1ccc(S(=O)(=O)N2CCN(c3ncc(C(=O)NO)s3)CC2)cc1 [Example 7, 2-[4-(4-acetyl-benzenesulfonyl)-piperazin-1-yl]-thiazole-5-carboxylic acid hydroxyamide] | – | – | 83.3 |
| O=C(NO)c1cnc(N2CCN(S(=O)(=O)c3cccs3)CC2)s1 [Example 8, 2-[4-(thiophene-2-benzenesulfonyl)-piperazin-1-Yl]-thiazole-5-carboxylic acid hydroxyamide] | 98 | – | 90.1 |
| O=C(NO)c1cnc(N2CCN(S(=O)(=O)c3ccc(-c4ccccc4)cc3)CC2)s1 [Example 9, 2-[4-(biphenyl-4-sulfonyl)-piperazin-1-yl]-thiazole-5-carboxylic acid hydroxyamide] | 97 | – | 97.7 |
| CN(C)c1cccc2c(S(=O)(=O)N3CCN(c4ncc(C(=O)NO)s4)CC3)cccc12 [Example 10, 2-[4-(5-dimethylamino-naphthalene-1-sulfonyl)-piperazin-1-yl]-thiazole-5-carboxylic acid hydroxyamide] | 88 | – | 97.8 |
| O=C(NO)c1cnc(N2CCN(S(=O)(=O)c3ccc(F)cc3)CC2)s1 [Example 11, 2-[4-(4-fluoro-benzenesulfonyl)-piperazin-1-yl]-thiazole-5-carboxylic acid hydroxyamide] | 98 | – | 96.7 |
| O=C(NO)c1cnc(N2CCN(S(=O)(=O)c3ccccc3)CC2)s1 [Example 12, 2-[4-(benzenesulfonyl)-piperazin-1-yl]-thiazole-5-carboxylic acid hydroxyamide] | 98 | – | 95.5 |
| O=C(NO)c1cnc(N2CCN(S(=O)(=O)c3ccc(N4CCCC4)cc3)CC2)s1 [Example 13, 2-[4-(4-pyrolidinylbenzenesulfonyl)-piperazin-1-yl]-thiazole-5-carboxylic acid hydroxyamide] | 99 | – | 98.9 |
| CN(C)S(=O)(=O)N1CCN(c2ncc(C(=O)NO)s2)CC1 [Example 14, 2-[4-(N,N-dimethylsulfonyl)-piperazin-1-yl]-thiazole-5-carboxylic acid hydroxyamide] | 98 | – | 89.8 |
| O=C(NO)c1cnc(N2CCN(S(=O)(=O)c3ccc(Cl)c(Cl)c3)CC2)s1 [Example 15, 2-[4-(3,4-dichlorolphenylsulfonyl)-piperazin-1-yl]-thiazole-5-carboxylic acid hydroxyamide] | – | – | 88.5 |
| CC(C)c1ccc(S(=O)(=O)N2CCN(c3ncc(C(=O)NO)s3)CC2)cc1 [Example 16, 2-[4-(4-isopropylphenylsulfonyl)-piperazin-1-yl]-thiazole-5-carboxylic acid hydroxyamide] | 100 | – | 90.9 |
| O=C(NO)c1cnc(N2CCN(S(=O)(=O)c3ccccc3Cl)CC2)s1 [Example 17, 2-[4-(2-chlorophenalsulfonyl)-piperazin-1-yl]-thiazole-5-carboxylic acid hydroxyamide] | – | – | 97.8 |
| O=C(NO)c1cnc(N2CCN(S(=O)(=O)c3ccc4c(c3)CCO4)CC2)s1 [Example 42, 2-[4-(2,3-dihydrobenzofuransulfonyl)-piperazin-1-yl]-thiazole-5-carboxylic acid hydroxyamide] | – | – | 90 |
| O=C(NO)c1cnc(N2CCN(S(=O)(=O)c3ccc4c(c3)OCCO4)CC2)s1 [Example 44, 2-[4-(3,4-benzodioxansulfonyl)-piperazin-1-yl]-thiazole-5-carboxylic acid hydroxyamide] | – | – | 91.7 |
| O=C(NO)c1cnc(N2CCN(S(=O)(=O)c3cc(F)cc(F)c3)CC2)s1 [Example 52, 2-[4-(3,5-difluorophenylsulfonyl)-piperazin-1-yl]-thiazole-5-carboxylic acid hydroxyamide] | – | – | 97.3 |
| O=C(NO)c1cnc(N2CCN(S(=O)(=O)c3ccc(Cl)cc3)CC2)s1 [Example 54, 2-[4-(chlorophenalsulfonyl)-piperazin-1-yl]-thiazole-5-carboxylic acid hydroxyamide] | – | – | 97.1 |
| O=C(NO)c1cnc(N2CCN(S(=O)(=O)c3ccc(-c4ccc[nH]4)cc3)CC2)s1 [Example 67, 2-(4-{[4-(1H-pyrrol-2-yl)phenyl]sulfonyl}piperazin-1-yl)-1,3-thiazole-5-carboxylic acid hydroxyamide] | – | – | 98 |
| O=C(NO)c1cnc(N2CCN(S(=O)(=O)c3ccc(-c4ccc(C(=O)N5CCOCC5)cc4)cc3)CC2)s1 [Example 69, 2-[4-(4′-(morpholin-4-ylcarbonyl)-1,1′-biphenylsulfonyl)piperazin-1-yl]-1,3-thiazole-5-carboxylic acid hydroxyamide] | – | – | 87.7 |
| CS(=O)(=O)Nc1ccc(-c2ccc(S(=O)(=O)N3CCN(c4ncc(C(=O)NO)s4)CC3)cc2)cc1 [Example 70, 2-[4-(4′-methylsulfonylamino-1,1′-biphenylsulfonyl)piperazin-1-yl]-1,3-thiazole-5-carboxylic acid hydroxyamide] | – | – | 83.6 |
| CN(C)c1cccc(-c2ccc(S(=O)(=O)N3CCN(c4ncc(C(=O)NO)s4)CC3)cc2)c1 [Example 71, 2-[4-(3′-(dimethylamino)-1,1′-biphenylsulfonyl)piperazin-1-yl]-1,3-thiazole-5-carboxylic acid hydroxyamide] | – | – | 97.2 |
| CN(C)CCN(C)Cc1cccc(-c2ccc(S(=O)(=O)N3CCN(c4ncc(C(=O)NO)s4)CC3)cc2)c1 [Example 85, 2-{4-[3′-{[(2-(dimethylamino)ethyl)(methyl)amino]methyl}-1,1′-biphenylsulfonyl]piperazin-1-yl}-1,3-thiazole-5-carboxylic acid hydroxyamide] | – | – | 97.5 |
| CCc1ccc(S(=O)(=O)N2CCN(c3ncc(C(=O)NO)s3)CC2)cc1 [Example 100, 2-[4-(4-Ethylbenzenesulfonyl)piperazin-1-yl]-thiazole-5-carboxylic acid hydroxyamide] | – | – | 96.8 |
| O=C(NO)c1cnc(N2CCN(S(=O)(=O)c3ccc(-n4cccn4)cc3)CC2)s1 [Example 101, 2-[4-(4-pyrazolylbenzenesulfonyl)-piperazin-1-yl]-thiazole-5-carboxylic acid hydroxyamide] | – | – | 98.1 |
